Each block holds one compound with its values, some of them ahead of it.
Tests used:
Wild-Type ALK = target: T1, Wild-Type ALK (Homo sapiens, UniProt Q9UM73); assay: Z'-LYTE (FRET) ALK kinase inhibitory activity; assay type: biochemical
T1 construct: purchased Life Technology
Method: (§1) The kinase activity assay was determined by using kinase assay panel (Life Technology) and the result was in table 1.

ALK L1196M = target: T2, ALK L1196M (Homo sapiens, UniProt Q9UM73, L1196M); assay: LanthaScreen Eu Kinase Binding Assay (TR-FRET) on ALK mutant
T2 construct: purchased Life Technology
T2 sequence (Q9UM73 19-1620 L1196M): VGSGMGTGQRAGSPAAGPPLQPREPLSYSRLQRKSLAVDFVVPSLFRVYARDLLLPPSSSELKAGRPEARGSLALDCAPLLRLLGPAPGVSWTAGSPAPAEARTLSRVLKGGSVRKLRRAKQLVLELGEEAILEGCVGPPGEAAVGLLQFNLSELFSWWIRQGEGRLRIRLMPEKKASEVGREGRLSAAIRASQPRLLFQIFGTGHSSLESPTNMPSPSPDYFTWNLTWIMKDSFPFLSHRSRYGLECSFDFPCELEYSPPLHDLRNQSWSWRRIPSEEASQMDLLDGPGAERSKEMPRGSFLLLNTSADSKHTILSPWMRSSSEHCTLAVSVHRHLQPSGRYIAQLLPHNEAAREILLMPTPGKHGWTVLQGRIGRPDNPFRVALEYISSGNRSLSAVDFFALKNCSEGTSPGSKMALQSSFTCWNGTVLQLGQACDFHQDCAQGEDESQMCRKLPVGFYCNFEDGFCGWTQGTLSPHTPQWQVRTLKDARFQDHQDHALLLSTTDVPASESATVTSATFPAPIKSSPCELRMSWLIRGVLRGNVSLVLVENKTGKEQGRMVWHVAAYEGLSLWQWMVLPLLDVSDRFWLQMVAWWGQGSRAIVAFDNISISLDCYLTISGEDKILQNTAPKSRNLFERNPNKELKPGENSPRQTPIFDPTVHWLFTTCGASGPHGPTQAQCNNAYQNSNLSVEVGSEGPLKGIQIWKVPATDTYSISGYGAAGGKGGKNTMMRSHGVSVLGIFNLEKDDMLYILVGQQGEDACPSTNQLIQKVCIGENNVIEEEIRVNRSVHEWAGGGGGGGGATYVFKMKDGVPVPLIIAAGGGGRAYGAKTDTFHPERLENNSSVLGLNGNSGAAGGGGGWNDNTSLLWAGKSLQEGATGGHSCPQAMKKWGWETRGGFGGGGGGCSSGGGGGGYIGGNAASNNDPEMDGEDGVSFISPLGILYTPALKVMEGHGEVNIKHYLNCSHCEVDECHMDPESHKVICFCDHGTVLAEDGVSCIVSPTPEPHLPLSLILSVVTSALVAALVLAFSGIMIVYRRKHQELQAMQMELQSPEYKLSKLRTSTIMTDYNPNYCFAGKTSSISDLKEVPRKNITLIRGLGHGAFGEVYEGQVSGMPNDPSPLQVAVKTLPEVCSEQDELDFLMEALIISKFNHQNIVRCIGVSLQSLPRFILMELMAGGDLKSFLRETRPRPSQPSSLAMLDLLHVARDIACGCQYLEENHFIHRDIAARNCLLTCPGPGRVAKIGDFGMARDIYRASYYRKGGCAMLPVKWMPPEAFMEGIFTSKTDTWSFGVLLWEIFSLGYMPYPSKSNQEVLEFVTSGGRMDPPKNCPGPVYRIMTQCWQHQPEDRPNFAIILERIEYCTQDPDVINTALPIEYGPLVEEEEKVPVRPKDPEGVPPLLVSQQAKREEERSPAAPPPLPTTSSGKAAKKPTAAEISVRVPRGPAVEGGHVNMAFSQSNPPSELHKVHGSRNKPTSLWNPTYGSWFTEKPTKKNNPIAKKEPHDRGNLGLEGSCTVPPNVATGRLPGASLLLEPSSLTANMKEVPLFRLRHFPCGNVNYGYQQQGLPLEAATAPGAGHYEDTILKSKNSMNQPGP
Excerpt: Meanwhile, The LanthaScreen® Eu Kinase Binging Assay (TR-FRET) method was used for determining ALK Mutants (such as ALK L1196M) inhibitory activity IC50. LanthaScreen Eu kinase binding experiment detected Alexa Fluor conjugate or kinase “tracer” binding by adding Eu labeled antibodies or anti-label antibodies. The combination of tracer and antibody with kinase leads to a high level of FRET, whereas the use of kinase inhibitors in place of tracer may cause FRET loss.
as §1

TEL-ALK-F1174L-BaF3 = target: T3, TEL-ALK-F1174L-BaF3 (Homo sapiens, UniProt Q9UM73, F1174L, cells depend on it); assay: Cell proliferation experiment (Cell-Titer GLO), TEL-ALK-F1174L-BaF3; assay type: cell-based; conditions: 72 h, read-out: IC50 TEL-ALK F1174L-BaF3
T3 construct: fused on or other part: TEL (ETV6) N-terminal oligomerising part fused before the ALK intracellular/kinase part; P41212 (Transcription factor ETV6)
T3 sequence (Q9UM73 whole entry F1174L, the tested form may be a part): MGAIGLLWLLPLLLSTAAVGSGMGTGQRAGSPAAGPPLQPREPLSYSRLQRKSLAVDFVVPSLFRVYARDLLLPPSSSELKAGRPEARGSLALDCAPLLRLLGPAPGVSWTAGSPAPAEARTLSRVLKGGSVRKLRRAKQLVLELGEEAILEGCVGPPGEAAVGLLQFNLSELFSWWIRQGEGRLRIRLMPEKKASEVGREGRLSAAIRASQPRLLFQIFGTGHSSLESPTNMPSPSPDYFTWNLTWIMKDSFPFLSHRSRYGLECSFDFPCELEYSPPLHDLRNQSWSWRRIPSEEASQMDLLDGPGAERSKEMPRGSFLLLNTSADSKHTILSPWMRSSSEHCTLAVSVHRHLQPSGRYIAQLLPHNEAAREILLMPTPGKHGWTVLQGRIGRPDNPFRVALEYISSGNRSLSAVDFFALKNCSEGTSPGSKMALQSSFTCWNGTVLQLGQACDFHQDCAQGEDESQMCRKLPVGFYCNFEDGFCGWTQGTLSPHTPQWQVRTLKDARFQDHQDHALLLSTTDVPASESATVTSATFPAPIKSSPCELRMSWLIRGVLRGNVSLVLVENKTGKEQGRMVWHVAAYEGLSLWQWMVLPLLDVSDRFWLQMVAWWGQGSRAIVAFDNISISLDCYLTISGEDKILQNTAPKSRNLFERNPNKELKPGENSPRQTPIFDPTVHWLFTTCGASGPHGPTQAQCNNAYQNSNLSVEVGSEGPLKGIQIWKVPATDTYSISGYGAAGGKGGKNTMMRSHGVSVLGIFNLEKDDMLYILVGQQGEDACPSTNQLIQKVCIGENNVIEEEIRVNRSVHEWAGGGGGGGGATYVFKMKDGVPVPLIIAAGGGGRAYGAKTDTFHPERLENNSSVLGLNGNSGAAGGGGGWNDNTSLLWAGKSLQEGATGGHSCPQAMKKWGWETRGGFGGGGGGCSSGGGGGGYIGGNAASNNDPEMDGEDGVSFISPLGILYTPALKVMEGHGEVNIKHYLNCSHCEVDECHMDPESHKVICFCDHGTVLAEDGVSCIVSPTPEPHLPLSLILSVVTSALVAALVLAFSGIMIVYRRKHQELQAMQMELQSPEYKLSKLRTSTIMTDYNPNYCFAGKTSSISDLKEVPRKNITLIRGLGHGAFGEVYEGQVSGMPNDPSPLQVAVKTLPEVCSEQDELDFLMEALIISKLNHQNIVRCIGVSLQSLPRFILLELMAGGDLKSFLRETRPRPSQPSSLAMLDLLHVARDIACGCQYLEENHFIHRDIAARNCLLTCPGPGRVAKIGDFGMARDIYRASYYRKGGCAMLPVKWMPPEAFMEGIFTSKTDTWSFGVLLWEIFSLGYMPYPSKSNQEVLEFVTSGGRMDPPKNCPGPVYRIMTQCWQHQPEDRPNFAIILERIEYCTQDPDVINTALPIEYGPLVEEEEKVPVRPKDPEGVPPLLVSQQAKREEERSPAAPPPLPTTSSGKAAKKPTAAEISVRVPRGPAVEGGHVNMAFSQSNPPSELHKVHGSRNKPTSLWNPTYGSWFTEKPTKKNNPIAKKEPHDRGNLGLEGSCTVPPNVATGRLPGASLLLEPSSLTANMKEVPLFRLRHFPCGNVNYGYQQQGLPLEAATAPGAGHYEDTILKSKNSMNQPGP
Method: (§2) Compounds to be tested: Positive compound Ceritinib and the compounds obtained by the examples of the present invention.
(§3) Cell lines: Karpas-299 and NCI-H3122 which were purchased from the Nanjing kebai biotechnology Co. LTD; TEL-ALK-F1174L-BaF3, TEL-ALK-G1202R-BaF3, TEL-ALK-C1156Y-BaF3 and TEL-ALK-L1196M-BaF3 which were purchased from Hefei zhongkopruisheng biological medicine technology Co. LTD.
(§4) Method: Cells were seeded in 96-well plates for 24 h in growth media containing 10% fetalbovine serum (FBS) and cultured overnight at 37° C. The following day, serial dilutions of compounds or appropriate control were added to the designated wells, and cells were incubated at 37° C. for 72 h. A Cell Titer Glo assay (Promega) was then performed to determine the relative cell numbers. IC50 values were calculated by concentration-response curve fitting using a four-parameter analytical method with Graphpad 6.0. Drug inhibition rate (%)=100%−[OD(Compound)−OD(blank)]/[OD(vehicle)−OD(blank)]×100% Equation: […]

TEL-ALK-G1202R-BaF3 = target: T4, TEL-ALK-G1202R-BaF3 (Homo sapiens, UniProt Q9UM73, G1202R, cells depend on it); assay: Cell proliferation experiment (Cell-Titer GLO), TEL-ALK-G1202R-BaF3; assay type: cell-based; conditions: 72 h, read-out: IC50 TEL-ALK G1202R-BaF3
T4 construct: fused on or other part: TEL (ETV6) N-terminal oligomerising part fused before the ALK intracellular/kinase part; P41212 (Transcription factor ETV6)
T4 sequence (Q9UM73 whole entry G1202R, the tested form may be a part): as the sequence (Q9UM73 whole entry F1174L, the tested form may be a part) above, with L1174F, G1202R counted along it
Method: as §2, §3, §4

TEL-ALK-C1156Y-BaF3 = target: T5, TEL-ALK-C1156Y-BaF3 (Homo sapiens, UniProt Q9UM73, C1156Y, cells depend on it); assay: Cell proliferation experiment (Cell-Titer GLO), TEL-ALK-C1156Y-BaF3; assay type: cell-based; conditions: 72 h, read-out: IC50 TEL-ALK C1156Y-BaF3
T5 construct: fused on or other part: TEL (ETV6) N-terminal oligomerising part fused before the ALK intracellular/kinase part; P41212 (Transcription factor ETV6)
T5 sequence (Q9UM73 whole entry C1156Y, the tested form may be a part): as the sequence (Q9UM73 whole entry F1174L, the tested form may be a part) above, with C1156Y, L1174F counted along it
Method: as §2, §3, §4

TEL-ALK-L1196M-BaF3 = target: T6, TEL-ALK-L1196M-BaF3 (Homo sapiens, UniProt Q9UM73, L1196M, cells depend on it); assay: Cell proliferation experiment (Cell-Titer GLO), TEL-ALK-L1196M-BaF3; assay type: cell-based; conditions: 72 h, read-out: IC50 TEL-ALK L1196M-BaF3
T6 construct: fused on or other part: TEL (ETV6) N-terminal oligomerising part fused before the ALK intracellular/kinase part; P41212 (Transcription factor ETV6)
T6 sequence (Q9UM73 whole entry L1196M, the tested form may be a part): as the sequence (Q9UM73 whole entry F1174L, the tested form may be a part) above, with L1174F, L1196M counted along it
Method: as §3
Method: Cells were seeded in 96-well plates for 24 h in growth media containing 10% fetalbovine serum (FBS) and cultured overnight at 37° C. The following day, serial dilutions of compounds or appropriate control were added to the designated wells, and cells were incubated at 37° C. for 72 h. A Cell Titer Glo assay (Promega) was then performed to determine the relative cell numbers. IC50 values were calculated by concentration-response curve fitting using a four-parameter analytical method with Graphpad 6.0.

NCI-H3122 = assay: Cell proliferation experiment (Cell-Titer GLO), NCI-H3122; assay type: cell-based; conditions: Homo sapiens, 72 h
Method: as §2, §3, §4

Karpas-299 = assay: Cell proliferation experiment (Cell-Titer GLO), Karpas-299; assay type: cell-based; conditions: Homo sapiens, 72 h
Method: as §2, §3, §4

[1] = system: zebrafish iridophore pigment cells; assay: Phenotypic screening of zebrafish: effect on iridophore pigment cells; assay type: in vivo, Zebrafish (Danio rerio); conditions: 15 μM
Excerpt: Zebrafish (Danio rerio) is emerging as a predictive vertebrate animal model for in vivo assessment of drug efficacy, toxicity and safety. An important advantage of the zebrafish animal model is that the morphological and molecular basis of tissues and organs is either identical or similar to other vertebrates, including humans. The sequence and presumed function of many genes that are important for vertebrates are conserved in the zebrafish and the homology is as high as 85%. It has been shown that loss-of-function alleles for leukocyte tyrosine kinase (Ltk), the sister kinase to ALK, lack iridophores in zebrafish (Lopes, S. S., Yang, X., et al. (2008). Leukocyte tyrosine kinase functions in pigment cell development. PLoS Genet, 4.). Iridophores are neural crest-derived pigment cells that are clearly visible as shiny silver cells in the developing zebrafish embryo which distribute in the head, eyes, the lateral spine. ALK and LTK are sister kinase.
Therefore, using this principle, we investigated the effect of the compounds on normal zebrafish iridophore pigment cells to explore the compound's anti-ALK activity in vivo.
Method: Fish eggs of 6 hpf (hours post impurity) were randomly divided into groups. Then, subjects with different concentrations were added and the images were collected at 3 dpf (days post impurity). Then, the IOD (integrated option density) values of zebrafish dorsal iridophore pigment cells from the release pore to the caudal position were analyzed using ImageJ software. The Graphpad prism6.0 was used to conduct statistical analysis on Dunnett's t-test, and p<0.05 indicates statistical difference. The calculation formula of iridophore pigment inhibition rate is as follows: Inhibition rate (%)=[1−IOD(Compound)/IOD(vehicle)]×100%

NCI-H2228 tumor cells = assay: Subcutaneous NCI-H2228 lung cancer xenograft model; assay type: in vivo, BALB/C nude mice
Method: BALB/C nude mice were inoculated at the right flank with NCI-H2228 tumor cells to establish the human Lung cancer xenograft model. […] The drug was administered for 14 days and then discontinued for two weeks. The therapeutic effect was evaluated by calculating the relative tumor proliferation rate T/C (%), and the tolerability of treatment was evaluated by the body weight changes and death.
Tumor volume (TV) were measured twice per week in two dimensions using a caliper, and the volume were expressed in mm^3 using the formula: V=0.5 a×b^2 where a and b are the long and short diameters of the tumor, respectively.
Relative tumor volume RTV=Vt/V0, Vt=tumor volume of the drug-treated group on a given day of the study, V0=tumor volume of the drug-treated group on the initial day of dosing.
The T/C value (%) is an indicator of tumor response to treatment, and one of commonly used anti-tumor activity endpoint; T/C %=TRTV/CRTV×100% Relative Tumor Growth Inhibition; % TGI=(1−T/C)×100%;

T1 sequence (Q9UM73 19-1620): as the sequence (Q9UM73 19-1620 L1196M) above, with M1178L counted along it

GI50 (TEL-ALK-F1174L-BaF3): 36.1 nM | GI50 (TEL-ALK-G1202R-BaF3): > 180 nM | GI50 (TEL-ALK-C1156Y-BaF3): 36.5 nM | IC50 (NCI-H3122): 40.7 nM | IC50 (Karpas-299): 40 to 85 nM
SMILES: Cc1cc(Nc2ncc(Cl)c(Nc3ccccc3S(=O)(=O)C(C)C)n2)c(OC(C)C)cc1C1CCNCC1 [Ceritinib, reference compound]
IOD ([1]; added at 6 hpf, images at 3 dpf): 35.5 ± 7.0 | inhibition at 15 µM ([1]; Danio rerio, iridophore pigment, 3 dpf, read-out: Inhibition rate %): 95% | TGI (NCI-H2228 tumor cells; 30 mg/kg PO QD 14 days, at 14 days after administration): 94.7% | tumor volume (NCI-H2228 tumor cells; 30 mg/kg PO QD 14 days, at 14 days after administration (first day after administration end)): 17 mm^3 | TGI (NCI-H2228 tumor cells; 30 mg/kg PO QD 14 days, end of the experiment (15 days after the administration)): 95.3% | anti-tumor effect (NCI-H2228 tumor cells; 30 mg/kg, once a day, continuously for 14 days): significant anti-tumor effect

IC50 (Wild-Type ALK): 18.8 nM | IC50 (ALK L1196M): 1.02 nM | GI50 (TEL-ALK-F1174L-BaF3): 94.3 nM | GI50 (TEL-ALK-G1202R-BaF3): > 180 nM | IC50 (NCI-H3122): 33.7 nM
SMILES: Cc1cc(Nc2ncc(Cl)c(Nc3cn(C)nc3S(=O)(=O)C(C)C)n2)c2c(c1C1CCN(C3CCNCC3)CC1)C[C@@H](C)O2 [REX-D13, (R)—N^2-(4-([1,4′-bipiperidin]-4-yl)-2,5-dimethyl-2,3-dihydrobenzofuran-7-yl)-5-chloro-N^4-(3-(isopropylsulfonyl)-1-methyl-1H-pyrazol-4-yl)pyrimidine-2,4-diamine]

Continued, compound first:

SMILES: Cc1cc(Nc2ncc(Cl)c(Nc3cn(C)nc3S(=O)(=O)C(C)C)n2)c2c(c1C1CCNCC1)C[C@@H](C)O2 [REX-D1, (R)-5-chloro-N^2-(2,5-dimethyl-4-(piperidin-4-yl)-2,3-dihydrobenzofuran-7-yl)-N^4-(3-(isopropylsulfonyl)-1-methyl-1H-pyrazol-4-yl)pyrimidine-2,4-diamine]
IC50 (Wild-Type ALK): 6.82 nM | IC50 (ALK L1196M): 1.34 nM | GI50 (TEL-ALK-F1174L-BaF3): < 10 nM | GI50 (TEL-ALK-G1202R-BaF3): > 180 nM | GI50 (TEL-ALK-C1156Y-BaF3): 10.5 nM | GI50 (TEL-ALK-L1196M-BaF3): 10.5 nM | IC50 (NCI-H3122): 10.6 nM | IC50 (Karpas-299): < 20 nM

SMILES: Cc1cc(Nc2ncc(Cl)c(Nc3cn(C(C)C)nc3S(=O)(=O)C(C)C)n2)c2c(c1C1CCN(C)CC1)C[C@@H](C)O2 [REX-D35, (R)-5-chloro-N^2-(2,5-dimethyl-4-(1-methylpiperidin-4-yl)-2,3-dihydrobenzofuran-7-yl)-N^4-(1-isopropyl-3-(isopropylsulfonyl)-1H-pyrazol-4-yl)pyrimidine-2,4-diamine]
IC50 (Wild-Type ALK): 13.9 nM | IC50 (ALK L1196M): 1.99 nM | GI50 (TEL-ALK-F1174L-BaF3): 80.4 nM | GI50 (TEL-ALK-G1202R-BaF3): > 180 nM | IC50 (NCI-H3122): 40.3 nM

SMILES: Cc1cc(Nc2ncc(Cl)c(Nc3cn(C)nc3S(=O)(=O)C(C)C)n2)c2c(c1C1CCN(C(C)C)CC1)C[C@@H](C)O2 [REX-D14, (R)-5-chloro-N^2-(4-(1-isopropylpiperidin-4-yl)-2,5-dimethyl-2,3-dihydrobenzofuran-7-yl)-N^4-(3-(isopropylsulfonyl)-1-methyl-1H-pyrazol-4-yl)pyrimidine-2,4-diamine]
IC50 (Wild-Type ALK): 15.7 nM | IC50 (ALK L1196M): 1.1 nM | GI50 (TEL-ALK-F1174L-BaF3): 11.2 nM | GI50 (TEL-ALK-G1202R-BaF3): > 180 nM | IC50 (NCI-H3122): 10.7 nM

Reference: patent publication US10710993B2, “Benzofuran pyrazole amine kinase inhibitor” (Hangzhou REX Pharmaceutical Co., LTD., priority 2016, dated 2020)
